This is an account of results in patent US20080103110A1, “Compounds” (DRUG DISCOVERY LABORATORY AS, priority 2004, published 2008).

Molecules are shown by their SMILES. Counter-ions that a name gives are not always drawn.

For series [1], the target named is T1, bovine serum albumin (BSA) (Bos taurus, UniProt P02769).
T1 construct: a solution of bovine serum albumin (BSA) in water
The experiment in a line: Protein binding studies: BSA solution, centrifugal filter devices, drug in filtrate by HPLC. Type of series: in vitro ADME. As to conditions: 37° C.; for % Protein Binding: didanosine derivatives of Examples 24 and 25, 4% BSA; for % Albumin binding: method of Example 7, 4% BSA. As to the method: The compound (approximately 5 mg) was dissolved in DMSO (approximately 1.8 ml). A small sample of this DMSO solution (approximately 5 mg) was added to a solution of bovine serum albumin (BSA) in water (approximately 1.8 ml, 4% BSA). Another sample of the DMSO solution (approximately 5 mg) was added to a solution of phosphate buffer pH 7.4 (isotonic) (approximately 1.8 ml).
Both samples were shaken in a water bath for 30 minutes at 37° C.
The devices were centrifugated at 4000 rpm for 1 hour at 37° C.
The amount of drug in the filtrates was determined by HPLC (C-18 column, phosphate buffer pH 2.2/acetonitrile, UV detection).

Series [2] relates to implanted human colon cancer. The experiment in a line: Efficacy of cytarabin azelaic acid derivative versus cytarabin, tumor size in nude mice. Type of series: in vivo. Particulars: solutions of Example 46, 0.1 ml i.p. twice, tumor size determined at day 13. On the procedure:
A solution of cytarabin hydrochloride was prepared by dissolving the hydrochloride salt (5.0 mg) in a sterile saline solution (1.0 ml). The solution was shaken with a ESPE Capmix shaker for 60 seconds before injection.
(§1) A solution of 5′-O-(azelaoyl) 1-β-D-arabinofuranosyl-cytosine meglumine salt was prepared by dissolving N-methyl-D-glucamine (6.0 mg, 0.030 mmol) and 5′-O-(azelaoyl) 1-β-D-arabinofuranosyl-cytosine (8.5 mg, 0.020 mmol) in a sterile saline solution (1.0 ml). The solution was shaken with a ESPE Capmix shaker for 60 seconds before injection.
(§2) The solution for injection (azelaoyl derivative) from Example 46 was administered i.p. twice (0.1 ml) to 4 nude mice (20 g). The mice had implanted human colon cancer on the leg. The second injection was on day 3.
The solutions (cytarabin and cytarabine azelaic derivative) described in Example 46 were injected as described in Example 47 (4 animals in each group). The size of the tumor was determined at day 13.

Series [3] relates to nude mice. Briefly: Toxicity of 5-O-(azelaoyl) 1-beta-D-arabinofuranosyl-cytosine meglumine salt in nude mice. Type of series: in vivo. Particulars: 8.5 mg/ml solution, 0.1 ml i.p. twice (second injection on day 3), nude mice (20 g) with implanted human colon cancer, observed for 13 days. As to the method: as §1, §2
Setting [4] is: 6-mercaptopurine and 6-mercaptopurine prodrugs.
[5] abbreviates: didanosine and didanosine prodrugs.

T1 sequence (P02769 25-607): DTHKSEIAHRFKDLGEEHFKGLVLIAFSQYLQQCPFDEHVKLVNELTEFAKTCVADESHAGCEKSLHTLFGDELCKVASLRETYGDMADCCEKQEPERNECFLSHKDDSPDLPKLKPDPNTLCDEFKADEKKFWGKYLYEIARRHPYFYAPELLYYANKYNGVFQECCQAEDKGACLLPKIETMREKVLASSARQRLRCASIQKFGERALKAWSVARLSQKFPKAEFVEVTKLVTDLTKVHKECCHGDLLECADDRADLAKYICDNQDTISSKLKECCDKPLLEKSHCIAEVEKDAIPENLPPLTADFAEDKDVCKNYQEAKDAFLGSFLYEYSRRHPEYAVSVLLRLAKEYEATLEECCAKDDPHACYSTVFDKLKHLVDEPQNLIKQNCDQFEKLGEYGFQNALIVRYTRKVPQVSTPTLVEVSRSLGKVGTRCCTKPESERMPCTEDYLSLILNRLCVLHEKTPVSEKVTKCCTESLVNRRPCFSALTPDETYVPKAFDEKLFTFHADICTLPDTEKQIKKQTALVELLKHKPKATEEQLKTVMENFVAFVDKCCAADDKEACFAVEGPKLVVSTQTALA

Consider `O=C(O)Cc1ccccc1CC(=O)OC[C@@H]1CC[C@H](n2cnc3c(O)ncnc32)O1` [5′-(2′3′-dideoxyinosine) mono 1,2-benzenediacetic acid ester], for which, in series [1], the “% Protein Binding” value was found to be 25%.

For `O=C(O)CCc1ccc(CCC(=O)OC[C@@H]2CC[C@H](n3cnc4c(O)ncnc43)O2)cc1` [5′-(2′3′-dideoxyinosine) mono 1,4-benzenedipropionic acid ester], the “% Protein Binding” value in series [1] was determined as 63%.

On to `O=C(O)Cc1cccc(CC(=O)OC[C@@H]2CC[C@H](n3cnc4c(O)ncnc43)O2)c1` [5′-(2′,3′-dideoxyinosine) mono 1,3-benzenediacetic acid ester], for which the “% Protein Binding” value in series [1] was 38%.

Turning to `O=C(O)c1cccc(C(=O)OC[C@@H]2CC[C@H](n3cnc4c(O)ncnc43)O2)c1` [5′-(2′,3′-dideoxyinosine) mono 1,3-benzenedicarboxylic acid ester], the “% Protein Binding” value in series [1] is 51%.

On to `O=C(O)Cc1ccc(CC(=O)OC[C@@H]2CC[C@H](n3cnc4c(O)ncnc43)O2)cc1` [5′-(2′,3′-dideoxyinosine) mono 1,4-benzenediacetic acid ester], for which the “% Protein Binding” value in series [1] is 28%.

On to `O=C(O)c1ccc(C(=O)OC[C@@H]2CC[C@H](n3cnc4c(O)ncnc43)O2)cc1` [5′-(2′,3′-dideoxyinosine) mono 1,4-benzenedicarboxylic acid ester], for which the “% Protein Binding” value in series [1] is recorded as 44%.

As for `Sc1ncnc2nc[nH]c12` [6-Mercaptopurine, reference compound], the “% Albumin binding” value in series [1] (setting [4]) is recorded as 10%.

As for `COC(=O)CCCCCSc1ncnc2[nH]cnc12` [Example 9, 6-(1H-purin-6-ylthio)-hexanoic acid methyl ester], in series [1] (setting [4]), the “% Albumin binding” value was 72%.

In the case of `COC(=O)CCCCCCCCCCCSc1ncnc2[nH]cnc12` [Example 10, 12-(1H-purin-6-ylthio)-dodecanoic acid methyl ester], the “% Albumin binding” value in series [1] (setting [4]) is given as “insoluble”.

On to `O=C(O)CCCCCCCCCCCSc1ncnc2[nH]cnc12` [Example 11, 12-(1H-purin-6-ylthio)dodecanoic acid], for which, in series [1] (setting [4]), the “% Albumin binding” value stood at 100%.

Regarding `O=C(O)CCCCC(=O)OCC1CCC(n2cnc3c(=O)[nH]cnc32)O1` (stereo not drawn) [Example 21, 2′,3′-dideoxy-5′-hydrogen hexanedioate inosine], the “% Albumin binding” value in series [1] (setting [5]) was determined as 100%.

`O=C(O)CCCCCCC(=O)OCC1CCC(n2cnc3c(=O)[nH]cnc32)O1` (stereo not drawn) [Example 22, 2′,3′-dideoxy-5′-hydrogen octanedioate inosine]: the “% Albumin binding” value in series [1] (setting [5]) is reported as 10%.

With `O=C(O)CCCCCCCCCCC(=O)OCC1CCC(n2cnc3c(=O)[nH]cnc32)O1` (stereo not drawn) [Example 23, 2′,3′-dideoxy-5′-hydrogen dodecanedioate inosine], the “% Albumin binding” value in series [1] (setting [5]) was found to be 40%.

On to `CC(C)(C)OC(=O)OC[C@@H]1CC[C@H](n2cnc3c(O)ncnc32)O1` [Example 24, 5′-Boc,-2′3′-dideoxyinosine], for which the “% Albumin binding” value in series [1] (setting [5]) is 94%. Besides, the “% Protein Binding” value in series [1] was found to be 8%.

Regarding `CNC[C@H](O)[C@@H](O)[C@H](O)[C@H](O)CO.Nc1ccn([C@@H]2O[C@H](COC(=O)CCCCCCCC(=O)O)[C@@H](O)[C@@H]2O)c(=O)n1` [Example 45, 5′-O-(azelaoyl) 1-β-D-arabinofuranosyl-cytosine meglumine salt], the average tumor growth entry in series [2] is “average tumor growth was higher for cytarabin treated mice than for mice treated with azelaic acid derivative”. Also, the sign of toxicity entry in series [3] is “did not show any sign of toxicity”.

Consider `Nc1ccn([C@@H]2O[C@H](CO)[C@@H](O)[C@@H]2O)c(=O)n1` [cytarabin, cytarabin hydrochloride, reference compound], for which the average tumor growth result in series [2] is on record as “higher for cytarabin treated mice than for mice treated with azelaic acid derivative”.
